Results published in PMC3914206.

Tests used:
Type in all cases: binding
Details in all cases: Compound Concentration 10 µM
panel of 442 kinases [1] = target: T1, panel of 442 kinases (Homo sapiens, UniProt P11362)
T1 construct: purchased KINOMEscan
From the text: (§1) We assessed the selectivity of members of this scaffold using the KINOMEscan methodology across a near comprehensive panel of 442 kinases [[18,27]].

panel of 442 kinases [2] = target: T2, panel of 442 kinases (Homo sapiens, UniProt P36888)
T2 construct: purchased KINOMEscan
T2 sequence (P36888 27-993): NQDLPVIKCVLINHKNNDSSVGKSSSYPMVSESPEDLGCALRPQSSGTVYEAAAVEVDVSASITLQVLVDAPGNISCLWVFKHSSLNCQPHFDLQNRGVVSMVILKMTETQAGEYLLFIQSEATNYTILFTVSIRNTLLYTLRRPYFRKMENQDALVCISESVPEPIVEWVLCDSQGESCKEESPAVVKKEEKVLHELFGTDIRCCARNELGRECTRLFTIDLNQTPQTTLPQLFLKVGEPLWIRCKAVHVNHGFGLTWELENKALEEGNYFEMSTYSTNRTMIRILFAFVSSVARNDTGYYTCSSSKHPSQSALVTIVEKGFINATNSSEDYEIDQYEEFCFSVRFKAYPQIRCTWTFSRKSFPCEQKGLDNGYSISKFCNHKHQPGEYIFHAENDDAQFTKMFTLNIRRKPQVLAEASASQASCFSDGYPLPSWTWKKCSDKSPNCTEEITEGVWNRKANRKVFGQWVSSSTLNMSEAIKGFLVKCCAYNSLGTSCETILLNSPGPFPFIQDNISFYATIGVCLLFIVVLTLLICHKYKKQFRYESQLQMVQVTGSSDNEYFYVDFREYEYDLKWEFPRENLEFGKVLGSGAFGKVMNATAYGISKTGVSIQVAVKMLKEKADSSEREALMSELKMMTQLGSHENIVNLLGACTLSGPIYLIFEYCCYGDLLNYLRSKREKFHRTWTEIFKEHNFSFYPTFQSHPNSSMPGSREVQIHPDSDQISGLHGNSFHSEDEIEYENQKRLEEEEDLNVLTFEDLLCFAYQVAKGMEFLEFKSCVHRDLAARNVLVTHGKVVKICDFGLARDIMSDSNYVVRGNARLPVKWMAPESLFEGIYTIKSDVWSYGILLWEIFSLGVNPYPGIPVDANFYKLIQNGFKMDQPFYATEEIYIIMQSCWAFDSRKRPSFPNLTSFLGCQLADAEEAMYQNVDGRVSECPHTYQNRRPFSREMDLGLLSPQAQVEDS
From the text: as §1

panel of 442 kinases [3] = target: T3, panel of 442 kinases (Homo sapiens, UniProt Q14289)
T3 construct: purchased KINOMEscan
T3 sequence (Q14289 whole entry): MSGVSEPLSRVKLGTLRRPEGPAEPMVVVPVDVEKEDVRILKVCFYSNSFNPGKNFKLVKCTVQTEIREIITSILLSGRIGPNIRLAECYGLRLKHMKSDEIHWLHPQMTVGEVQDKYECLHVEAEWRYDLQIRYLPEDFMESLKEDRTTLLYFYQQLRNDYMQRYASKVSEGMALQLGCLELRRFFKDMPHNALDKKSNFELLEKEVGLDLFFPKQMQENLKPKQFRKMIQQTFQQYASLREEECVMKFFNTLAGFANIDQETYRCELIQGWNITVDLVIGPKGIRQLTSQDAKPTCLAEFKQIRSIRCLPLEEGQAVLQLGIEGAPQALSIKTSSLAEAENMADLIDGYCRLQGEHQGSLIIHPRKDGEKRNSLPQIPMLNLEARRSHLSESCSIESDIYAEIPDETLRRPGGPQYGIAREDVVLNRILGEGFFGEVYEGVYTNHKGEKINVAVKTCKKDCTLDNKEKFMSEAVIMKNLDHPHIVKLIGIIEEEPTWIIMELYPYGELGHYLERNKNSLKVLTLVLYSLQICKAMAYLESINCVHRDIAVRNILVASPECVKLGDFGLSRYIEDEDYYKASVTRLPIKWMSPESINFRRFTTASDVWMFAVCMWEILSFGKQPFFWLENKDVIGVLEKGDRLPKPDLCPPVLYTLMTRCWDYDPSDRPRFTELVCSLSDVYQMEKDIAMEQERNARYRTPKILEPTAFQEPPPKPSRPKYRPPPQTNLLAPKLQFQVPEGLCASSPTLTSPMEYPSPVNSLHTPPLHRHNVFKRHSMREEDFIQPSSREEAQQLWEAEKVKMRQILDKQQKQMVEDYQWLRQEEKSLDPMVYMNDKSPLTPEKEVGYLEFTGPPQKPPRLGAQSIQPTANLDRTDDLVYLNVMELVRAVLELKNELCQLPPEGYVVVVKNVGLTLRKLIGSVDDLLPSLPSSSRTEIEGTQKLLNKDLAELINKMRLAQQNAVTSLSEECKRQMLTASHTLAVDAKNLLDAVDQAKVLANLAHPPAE
From the text: as §1

T1 sequence (P11362 22-822): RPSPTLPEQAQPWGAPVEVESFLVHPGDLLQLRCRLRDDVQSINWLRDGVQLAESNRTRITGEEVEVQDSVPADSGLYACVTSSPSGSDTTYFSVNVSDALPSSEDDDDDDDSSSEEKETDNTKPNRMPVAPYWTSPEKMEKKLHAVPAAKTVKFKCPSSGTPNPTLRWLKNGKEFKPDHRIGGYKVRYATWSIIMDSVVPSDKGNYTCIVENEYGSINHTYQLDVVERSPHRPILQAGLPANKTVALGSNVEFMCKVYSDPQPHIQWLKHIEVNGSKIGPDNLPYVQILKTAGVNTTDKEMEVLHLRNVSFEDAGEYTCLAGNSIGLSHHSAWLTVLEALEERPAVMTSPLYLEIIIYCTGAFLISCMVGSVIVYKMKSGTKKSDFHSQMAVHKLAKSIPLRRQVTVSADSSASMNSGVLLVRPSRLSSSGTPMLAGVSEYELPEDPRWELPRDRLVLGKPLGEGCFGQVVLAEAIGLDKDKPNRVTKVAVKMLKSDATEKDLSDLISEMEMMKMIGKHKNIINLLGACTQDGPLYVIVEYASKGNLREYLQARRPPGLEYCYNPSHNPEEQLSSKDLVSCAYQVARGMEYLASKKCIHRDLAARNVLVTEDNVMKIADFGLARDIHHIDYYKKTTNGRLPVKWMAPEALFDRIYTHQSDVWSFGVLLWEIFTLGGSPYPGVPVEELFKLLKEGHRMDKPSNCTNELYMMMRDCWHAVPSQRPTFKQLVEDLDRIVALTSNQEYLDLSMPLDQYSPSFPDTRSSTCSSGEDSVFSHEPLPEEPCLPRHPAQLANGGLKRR

| SMILES | KINOMEscan: FGFR1 (panel of 442 kinases [1]) | KINOMEscan: FLT3 (panel of 442 kinases [2]) | KINOMEscan: PYK2 (panel of 442 kinases [3]) |
| --- | --- | --- | --- |
| COc1cc(C(=O)N2CCC(N3CCN(C)CC3)CC2)ccc1Nc1ncc2c(n1)N(C)c1ccccc1C(=O)N2C [15 (LRRK2-IN-1)] | 86 | 100 | 78 |
| CCOc1cc(C(=O)N2CCC(N3CCN(C)CC3)CC2)ccc1Nc1ncc2c(n1)N(C1CCCC1)c1ccccc1C(=O)N2C [Compound 26] | 100 | 100 | 43 |
| COc1cc(C(=O)N2CCC(N3CCN(C)CC3)CC2)ccc1Nc1ncc2c(n1)N1CCc3cccc(c31)C(=O)N2C [Compound 24] | 83 | – | 77 |
| COc1cc(C(=O)N2CCC(N3CCN(C)CC3)CC2)ccc1Nc1ncc2c(n1)N(C1CCCC1)c1ccccc1C(=O)N2C [Compound 25, 11-cyclopentyl-2-((2-methoxy-4-(4-(4-methylpiperazin-1-yl)piperidine-1-carbonyl)phenyl)amino)-5-methyl-5H-benzo[e]pyrimido[5,4-b][1,4]diazepin-6(11H)-one] | 100 | 100 | 17 |
